{
  "source": "paper PMC8231945",
  "about": "“Ingol and Ingenol-Type Diterpenes from Euphorbia trigona Miller with Keratinocyte Inhibitory Activity” (Plants, 2021)",
  "system": "HPV-Ker cells",
  "assay": "Viability test of HPV-Ker keratinocytes by real-time impedance monitoring (xCELLigence RTCA)",
  "type": "cell-based, human",
  "settings": "for keratinocyte inhibitory activity in vitro (overall verdict) / cytotoxic effect against keratinocytes: HPV-Ker; for keratinocyte inhibitory activity in vitro (overall verdict): compared to ingenol mebutate; for IC50: Homo sapiens, Keratinocyte",
  "text": "The main risk factor of induction of AK is UV irradiation. The UVB component of sunlight damages DNA, which might cause mutations in p53 and other tumor suppressor genes. Therefore, as an in vitro model of AK, we used the HPV-Ker cell line which contains the E6 oncoprotein of the human papillomavirus, leading to the degradation of the p53 tumor suppressor [26].\nSince our compounds, especially the ingenol-derivatives, are structurally very similar to ingenol mebutate (Figure 3), we were interested in whether they have any effect on the viability of keratinocytes. The HPV-Ker cell line was treated with the isolated ingol- and ingenol-type diterpenoids with a concentration range of 5 × 10^−9–5 × 10^−4 M, the viability was measured with the xCELLigence System RTCA HT (Agilent Technologies, Santa Clara, CA, USA) instrument for 72 h, and data at 24 and 48 h were used for calculations (Table 1). IC50 values were calculated based on the sigmoidal dose–response formula.\nThe immortalized human keratinocyte cell line (HPV-Ker) was cultured in Keratinocyte-SFM supplemented with 5 ng/mL of recombinant epidermal growth factor, […] of bovine pituitary extract, and antibiotic/antimycotic solution in a CO2 thermostat at 37 °C.\nThe effect of the extracts and the purified compounds on HPV-Ker cells was investigated by real-time monitoring with the xCELLigence System RTCA HT Instrument (ACEA Biosciences, San Diego, CA, USA). 8 × 10^3 HPV-Ker cells were seeded in 96-well E-plates and keratinocytes were allowed to attach to the bottom of the wells and grow for 24 h. Cells were then treated with the indicated extract or substance for another 72 h. Real-time measurements of impedance were monitored every 15 min, then data at 24 and 48 h were used for calculations. The half-maximal inhibitory concentration (IC50) values for the compounds were calculated and GraphPad Prism 9.0 was used to plot results. All experiments were performed in duplicate, in three independent repeats.",
  "key": {"[1]": {"settings": "HPV-Ker cell line, 24 h of treatment, ± SD, read-out: IC50 Value 24 h"}, "[2]": {"settings": "HPV-Ker cell line, 48 h of treatment, ± SD, read-out: IC50 Value 48 h"}, "[3]": {"settings": "HPV-Ker cells, RTCA normalized CI * hours, 24 h, read-out: IC50 (24h), Figure 4"}, "[4]": {"settings": "HPV-Ker cells, RTCA normalized CI * hours, 48 h, read-out: IC50 (48h), Figure 4"}},
  "note": "Read-outs that look alike come from different tables or passages of the source.",
  "data": [
    {"smiles": "C/C=C(/C)C(=O)O[C@H]1C(C)=CC23C(=O)[C@@H](C=C(COC(C)=O)[C@@H](O)[C@]12O)[C@H]1[C@@H](C[C@H]3C)[C@@]1(C)COC(C)=O", "note": "[Compound 6, 17-acetoxyingenol 3-angelate 20-acetate]", "values": [
      {"measurement": "keratinocyte inhibitory activity in vitro (overall verdict)", "result": "strong keratinocyte inhibitory activity"},
      {"measurement": "IC50", "setting": "[1]", "result": "390 ± 90", "unit": "nM"},
      {"measurement": "IC50", "setting": "[2]", "result": "320 ± 50", "unit": "nM"}
    ]},
    {"smiles": "C/C=C(/C)C(=O)O[C@H]1C(C)=CC23C(=O)[C@@H](C=C(C)[C@@H](O)[C@]12O)[C@H]1[C@@H](C[C@H]3C)[C@@]1(C)COC(C)=O", "note": "[Compound 8, 17-acetoxy-20-deoxyingenol 3-angelate]", "values": [
      {"measurement": "IC50", "setting": "[1]", "result": "4320 ± 920", "unit": "nM"}
    ]},
    {"smiles": "C/C=C(\\C)C(=O)O[C@@H]1/C(C)=C/[C@@]23O[C@@]2(C[C@H](C)[C@@H]3OC(C)=O)C(=O)[C@H](C)[C@H](OC(C)=O)[C@@H]2[C@H]([C@@H]1O)C2(C)C", "note": "[Compound 1, Ingol 3,12-diacetate 7-tigliate]", "values": [
      {"measurement": "IC50", "setting": "[1]", "result": "14200 ± 2850", "unit": "nM"},
      {"measurement": "IC50", "setting": "[2]", "result": "1720 ± 140", "unit": "nM"}
    ]},
    {"smiles": "CO[C@H]1[C@H]2[C@@H]([C@@H](OC(C)=O)[C@@H](C)C(=O)[C@@]34C[C@H](C)[C@H](OC(C)=O)[C@]3(/C=C(\\C)[C@H]1OC(=O)c1ccccc1)O4)C2(C)C", "note": "[Compound 3, 8-O-methyl-ingol 3,12-diacetate 7-benzoate]", "values": [
      {"measurement": "IC50 Value 24 h", "setting": "HPV-Ker cell line, 24 h of treatment, ± SD", "result": "inactive"},
      {"measurement": "IC50 Value 48 h", "setting": "HPV-Ker cell line, 48 h of treatment, ± SD", "result": "inactive"}
    ]},
    {"smiles": "C/C=C(/C)C(=O)O[C@@H]1C(C)=C[C@@H]2C(=O)C3(C=C(C)[C@H](O)[C@@]13O)[C@H](C)C[C@@H]1[C@H]2[C@]1(C)COC(C)=O", "note": "[Compound 9, 17-acetoxy-20-deoxyingenol 5-angelate]", "values": [
      {"measurement": "IC50", "setting": "[1]", "result": "14800 ± 3830", "unit": "nM"},
      {"measurement": "IC50", "setting": "[2]", "result": "7930 ± 1710", "unit": "nM"}
    ]},
    {"smiles": "C/C=C(/C)C(=O)O[C@H]1C(C)=CC23C(=O)[C@@H](C=C(COC(C)=O)[C@@H](OC(C)=O)[C@]12O)[C@H]1[C@@H](C[C@H]3C)[C@@]1(C)COC(C)=O", "note": "[Compound 7, 17-acetoxyingenol 3 angelate 5,20-diacetate]", "values": [
      {"measurement": "keratinocyte inhibitory activity in vitro (overall verdict)", "result": "strong keratinocyte inhibitory activity"},
      {"measurement": "IC50", "setting": "[1]", "result": "320 ± 20", "unit": "nM"},
      {"measurement": "IC50", "setting": "[2]", "result": "870 ± 70", "unit": "nM"},
      {"measurement": "IC50", "setting": "[3]", "result": 323, "unit": "nM"},
      {"measurement": "IC50", "setting": "[4]", "result": 873, "unit": "nM"}
    ]},
    {"smiles": "C/C=C(\\C)C(=O)O[C@@H]1/C(C)=C/[C@@]23O[C@@]2(C[C@H](C)[C@@H]3OC(C)=O)C(=O)[C@H](C)[C@H](OC(C)=O)[C@@H]2[C@H]([C@@H]1OC)C2(C)C", "note": "[Compound 2, 8-O-methyl-ingol 3,12-diacetate 7-tigliate]", "values": [
      {"measurement": "IC50", "setting": "[1]", "result": "17300 ± 1650", "unit": "nM"},
      {"measurement": "IC50", "setting": "[2]", "result": "14500 ± 3780", "unit": "nM"}
    ]},
    {"smiles": "C/C=C(/C)C(=O)O[C@H]1C(C)=C[C@]23C(=O)[C@@H](C=C(CO)[C@@H](O)[C@]12O)[C@H]1[C@@H](C[C@H]3C)C1(C)C", "note": "[Ingenol mebutate, reference compound]", "values": [
      {"measurement": "cytotoxic effect against keratinocytes", "setting": "0.5 µg/mL, 24 h", "result": "weaker, but still significant, cytotoxic effect"},
      {"measurement": "cytotoxic effect against keratinocytes", "setting": "0.5 µg/mL, 48 h", "result": "comparable to the treatment when 5 µg/mL was used for 48 h"},
      {"measurement": "cytotoxic effect against keratinocytes", "setting": "5 µg/mL, 24 h", "result": "strongest cytotoxic effect"},
      {"measurement": "cytotoxic effect against keratinocytes", "setting": "5 µg/mL, 48 h", "result": "lower cytotoxicity"},
      {"measurement": "IC50", "setting": "[1]", "result": "840 ± 10", "unit": "nM"},
      {"measurement": "IC50", "setting": "[2]", "result": "960 ± 30", "unit": "nM"},
      {"measurement": "IC50", "setting": "[3]", "result": 844, "unit": "nM"},
      {"measurement": "IC50", "setting": "[4]", "result": 959, "unit": "nM"}
    ]}
  ]
}
